The test system of one test is Colo205 tumor cells. The test can be described thus: Cell growth inhibition assay (CellTiter-Glo), Colo205. The test is classed as cell-based, Human. The settings on record: Homo sapiens, COLO 205, 72 h; 3 days incubation. The method, boiled down: (§1)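 Cells plated at 500 cells/well in their growth media, dosed next day with nine-step 1:3 compound dilutions (final DMSO 0.2%), then incubated 3 days at 37° C, 5% CO2. Total ATP read by CellTiter-Glo luminescence as a surrogate for cell number; IC50 interpolated from 4-parameter fit versus DMSO controls.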

Another test deals with SK-MEL-3 tumor cells. Put plainly: Cell growth inhibition assay (CellTiter-Glo), SK-MEL-3. The settings on record: Homo sapiens, SK-MEL3. The test is classed as cell-based, Human. The protocol:
Human breast tumor cells (BT474) were cultured in RPMI (Mediatech […]), containing 10% FBS (JRH Biosciences 12176) and 1% penicillin-streptomycin (Invitrogen 15140). Human head and neck tumor cells (HN5) were cultured in high glucose DMEM (Mediatech 50-013-PB) containing 10% FBS and 1% penicillin-streptomycin. Human colon tumor cells (Colo205) were cultured in RPMI (Mediatech 50-020-PB) containing 10% FBS and 1% penicillin-streptomycin. Human melanoma cancer cells (SK-MEL-28) were cultured in EMEM with nonessential amino acids (Mediatech 50-011-PB) containing 10% FBS, 1% sodium pyruvate (JT Baker 3354-04), and 1% penicillin-streptomycin. Human melanoma cancer cells (A375P F11s) were cultured in RPMI (Mediatech 50-020-PB) containing 10% FBS, 1% sodium pyruvate, and 1% penicillin-streptomycin. Human colon cancer cells (HT-29) were cultured in high glucose DMEM (Mediatech 50-013-PB) containing 10% FBS and 1% penicillin-streptomycin. Human melanoma cancer cells (SK-MEL-3) were cultured in McCoy's 5A (50-025-PB) containing 15% FBS, and 1% penicillin-streptomycin. All cell lines were maintained at 37° C. in a humidified 5% CO2, 95% air incubator. Cells were harvested using trypsin/EDTA (Invitrogen 25200), counted using a haemocytometer, and plated. For 96-well assays (using white full-area NUNC plates cat. #136102), cells were plated in 105 μL at the following densities (cells/well): HNS, 500; Colo 205, 500; SK-MEL-28, 500; A375P F11s, 500; HT-29, 500; SK-MEL-3, 500; and BT474, 3000. For 384-well assays (white full-area NUNC plates, cat. #781080), cells were plated in 48 μL at the following densities (cells/well): HNS, 500; Colo205, 500; SK-MEL-28, 500; A375P F11s, 500; HT-29, 500; SK-MEL-3, 500; and BT474, 2000.
The next day, compounds were diluted as follow: For 96-well assays, 13.5 μL of compound in DMSO were diluted using nine (9) serial 1:3 dilutions of 4.5 μL in 9 of DMSO. Medium (270 μL/well of RPMI with 10% FBS and 1% penicillin-streptomycin) was added to the plates. Aliquots (7 μL) were added to cells in the final assay giving a final DMSO concentration of 0.2%. For 384-well assays, 15 μL of compound in DMSO were diluted using nine (9) serial 1:3 dilutions of 5 μL in 10 μL of DMSO, followed by a further dilution of 5 μL of compound with 95 μL of medium, of which 2 μL were added to cells in the final assay giving a final DMSO concentration of 0.2%. Cells were incubated at 37° C., 5% CO2 for 3 days.
Total ATP was measured (as a surrogate estimate of cell number) using CellTiter-Glo® reagent (Promega G7571). Briefly, plates were removed from the incubator and allowed to equilibrate to room temperature for 30 minutes. CellTiter-Glo® (25 μL or 55 μL for 384-well or 96-well assays, respectively) reagent was added to each well and plates were shaken on an orbital plate shaker for 2 minutes. Plates were incubated without shaking for a further 30 minutes and read on an LJL Analyst GT reader in luminometer mode with an integration time of 0.5 seconds per well. Percent inhibition of cell growth was calculated relative to DMSO vehicle-treated control wells. Concentration of compound required to give 50% inhibition of vehicle-treated control cell growth (IC50) was interpolated using a 4-parameter fit for determining IC50 using the following equation: Y=A +((B−A)/(1+((C/X)̂D))) where […].
A general note: Cellular ATP, detected with luciferase, serves as a proxy for viable cell number.

A further test has as its system SK-MEL-28 tumor cells. The test can be described thus: Cell growth inhibition assay (CellTiter-Glo), SK-MEL-28. Format: cell-based, Human. Particulars: Homo sapiens, SK-MEL-28, 72 h; 3 days incubation. The procedure, abridged: as §1
Another test has as its target T1, ErbB2 (Homo sapiens, UniProt P04626).
T1 construct: made in house; host or cells: baculovirus expression system
The test can be described thus: ErbB-2 substrate phosphorylation assay (HTRF). Format: biochemical. The method, boiled down:
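Baculovirus-expressed EGFR (0.8 nM) or ErbB2 (10 nM) in enzyme mix, preincubated 1 h at 20 °C with compound (0.00027–47.6 μM final), then 90 min at 20 °C with substrate mix of 20 μM ATP, 0.8 uM biotinylated Peptide C, MnCl2, MOPS pH 7.5. Phosphotyrosine by HTRF; pIC50 reported.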

The source of these data is patent publication US20110319392A1, “Thiazole Sulfonamide And Oxazole Sulfonamide Kinase Inhibitors” (priority 2009, published 2011).

A word on the IC50: it is the concentration that gives 50% inhibition. A lower IC50 goes with higher potency.

SMILES strings stand for the structures. Counter-ions that a name gives are not always drawn. Where only a bound is given, the exact number is not on record here.

T1 sequence (P04626 23-1255): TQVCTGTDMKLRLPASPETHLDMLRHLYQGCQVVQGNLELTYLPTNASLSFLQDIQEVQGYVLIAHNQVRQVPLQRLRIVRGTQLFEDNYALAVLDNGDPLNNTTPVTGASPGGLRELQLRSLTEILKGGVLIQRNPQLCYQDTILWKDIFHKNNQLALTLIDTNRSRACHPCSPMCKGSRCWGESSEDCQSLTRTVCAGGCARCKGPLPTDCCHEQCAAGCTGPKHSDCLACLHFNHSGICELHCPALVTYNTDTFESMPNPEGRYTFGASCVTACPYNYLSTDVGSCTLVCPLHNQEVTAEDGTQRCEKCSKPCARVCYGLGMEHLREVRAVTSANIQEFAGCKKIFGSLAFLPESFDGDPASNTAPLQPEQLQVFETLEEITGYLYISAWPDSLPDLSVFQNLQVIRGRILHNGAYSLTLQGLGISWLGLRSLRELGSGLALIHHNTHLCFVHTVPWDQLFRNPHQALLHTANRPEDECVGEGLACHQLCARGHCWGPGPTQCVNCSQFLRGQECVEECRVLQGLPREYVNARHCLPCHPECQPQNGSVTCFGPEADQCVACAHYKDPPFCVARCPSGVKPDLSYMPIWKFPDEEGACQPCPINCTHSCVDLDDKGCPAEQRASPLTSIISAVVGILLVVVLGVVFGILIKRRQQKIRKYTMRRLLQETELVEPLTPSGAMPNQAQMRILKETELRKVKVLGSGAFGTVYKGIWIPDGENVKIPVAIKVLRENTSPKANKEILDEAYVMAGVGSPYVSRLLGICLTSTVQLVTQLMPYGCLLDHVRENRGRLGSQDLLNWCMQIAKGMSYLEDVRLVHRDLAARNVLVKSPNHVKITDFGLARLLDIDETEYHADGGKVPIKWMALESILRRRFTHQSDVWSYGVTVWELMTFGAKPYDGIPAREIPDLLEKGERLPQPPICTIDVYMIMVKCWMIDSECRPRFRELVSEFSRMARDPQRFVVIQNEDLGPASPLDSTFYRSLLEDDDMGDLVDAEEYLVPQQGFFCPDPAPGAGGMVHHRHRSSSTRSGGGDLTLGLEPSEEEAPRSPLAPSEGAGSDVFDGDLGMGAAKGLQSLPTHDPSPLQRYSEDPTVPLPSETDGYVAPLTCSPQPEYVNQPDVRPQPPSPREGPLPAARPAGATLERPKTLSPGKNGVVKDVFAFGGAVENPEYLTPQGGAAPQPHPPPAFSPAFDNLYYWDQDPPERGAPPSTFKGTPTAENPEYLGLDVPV

In the case of `CCNc1nc(-c2cccc(NS(=O)(=O)c3c(F)cccc3F)c2)c(-c2ccnc(Nc3ccc(N4CCOCC4)nc3)n2)s1` [Example 152], the IC50 is under 100 nM in the test with Colo205 tumor cells, under 100 nM with SK-MEL-3 tumor cells, under 100 nM in the test with SK-MEL-28 tumor cells and 100 to 1000 nM against ErbB2.
Turning to `Nc1nc(-c2cccc(NS(=O)(=O)c3c(F)cccc3F)c2)c(-c2ccnc(Nc3ccc(N4CCOCC4)nc3)n2)s1` [Example 62], the concentration for half-maximal inhibition (IC50) with Colo205 tumor cells is under 100 nM; in the test on SK-MEL-3 tumor cells, under 100 nM; in the test with SK-MEL-28 tumor cells it was under 100 nM; against ErbB2, 100 to 1000 nM.
Consider `CC(C)c1nc(-c2cccc(NS(=O)(=O)c3cccs3)c2)c(-c2ccnc(Nc3ccc(N4CCOCC4)nc3)n2)s1` [Example 51], for which the IC50 was under 100 nM in the test on Colo205 tumor cells, under 100 nM in the test with SK-MEL-3 tumor cells, under 100 nM in the test with SK-MEL-28 tumor cells and 100 to 1000 nM against ErbB2.
On to `CC(C)c1nc(-c2cc(F)c(F)c(NS(=O)(=O)c3cccc(F)c3)c2)c(-c2ccnc(Nc3ccc(N4CCN(CCF)CC4)c(F)c3)n2)s1` [Example 101], for which the IC50 in the test with Colo205 tumor cells, in the test with SK-MEL-3 tumor cells, with SK-MEL-28 tumor cells and on ErbB2 was 100 to 1000 nM in each case.
For `CC(C)c1nc(-c2cccc(NS(=O)(=O)c3c(F)cccc3F)c2)c(-c2ccnc(Nc3ccc(OC4CCN(CCS(C)(=O)=O)CC4)c(F)c3)n2)s1` [Example 13, 2,6-Difluoro-N-{3-[5-(2-{[3-fluoro-4-({1-[2-(methylsulfonyl)ethyl]-4-piperidinyl}oxy)phenyl]amino}-4-pyrimidinyl)-2-(1-methylethyl)-1,3-thiazol-4-yl]phenyl}benzenesulfonamide hydrochloride], the IC50 with Colo205 tumor cells was under 100 nM; in the test on SK-MEL-3 tumor cells, under 100 nM; in the test with SK-MEL-28 tumor cells, under 100 nM; against ErbB2, over 1000 nM.
On to `COc1cc(N2CCN(CCS(C)(=O)=O)CC2)c(C)cc1Nc1nccc(-c2sc(C(C)C)nc2-c2cccc(NS(=O)(=O)c3c(F)cccc3F)c2)n1` [Example 19], for which the IC50 was under 100 nM in the test on Colo205 tumor cells, 100 to 1000 nM with SK-MEL-3 tumor cells, 100 to 1000 nM in the test on SK-MEL-28 tumor cells and under 100 nM against ErbB2.
Turning to `COc1ccc(S(C)(=O)=O)cc1Nc1nccc(-c2sc(N3CCOCC3)nc2-c2cccc(NS(=O)(=O)c3c(F)cccc3F)c2F)n1` [Example 157], the IC50 in the test on Colo205 tumor cells was under 100 nM; with SK-MEL-3 tumor cells, under 100 nM; with SK-MEL-28 tumor cells it was under 100 nM; against ErbB2 it was over 1000 nM.
`CC(C)c1nc(-c2ccc(F)c(NS(=O)(=O)c3c(F)cccc3F)c2)c(-c2ccnc(Nc3ccncc3)n2)s1` [Example 102]: the IC50 is 100 to 1000 nM with Colo205 tumor cells, 100 to 1000 nM in the test with SK-MEL-3 tumor cells, 100 to 1000 nM with SK-MEL-28 tumor cells and over 1000 nM against ErbB2.
Regarding `CC(C)c1nc(-c2cccc(NS(=O)(=O)c3c(F)cccc3F)c2F)c(-c2ccnc(Nc3cnc(N4CCOCC4)c(F)c3)n2)s1` [Example 30, 2,6-Difluoro-N-{2-fluoro-3-[5-(2-{[5-fluoro-6-(4-morpholinyl)-3-pyridinyl]amino}-4-pyrimidinyl)-2-(1-methylethyl)-1,3-thiazol-4-yl]phenyl}benzenesulfonamide], the IC50 in the test with Colo205 tumor cells is under 100 nM; in the test with SK-MEL-3 tumor cells, under 100 nM; in the test on SK-MEL-28 tumor cells it was under 100 nM; at ErbB2, over 1000 nM.
`CS(=O)(=O)c1cccc(Nc2nccc(-c3sc(N4CCOCC4)nc3-c3cccc(NS(=O)(=O)c4c(F)cccc4F)c3F)n2)c1` [Example 130]: the 50% inhibitory concentration (IC50) was under 100 nM with Colo205 tumor cells, under 100 nM in the test on SK-MEL-3 tumor cells, under 100 nM in the test with SK-MEL-28 tumor cells and 100 to 1000 nM against ErbB2.
As to `CC(=O)N1CCN(c2ccc(Nc3nccc(-c4sc(C(C)C)nc4-c4cccc(NS(=O)(=O)c5ccc(F)cc5)c4)n3)cn2)CC1` [Example 10, N-{3-[5-(2-{[6-(4-Acetyl-1-piperazinyl)-3-pyridinyl]amino}-4-pyrimidinyl)-2-(1-methylethyl)-1,3-thiazol-4-yl]phenyl}-4-fluorobenzenesulfonamide], the IC50 in the test on Colo205 tumor cells is under 100 nM; with SK-MEL-3 tumor cells, 100 to 1000 nM; in the test with SK-MEL-28 tumor cells it was under 100 nM; on ErbB2, over 1000 nM.
As to `CC(C)c1nc(-c2cccc(NS(=O)(=O)c3c(F)cccc3F)c2F)c(-c2ccnc(Nc3ccc(N4CCN(CCF)CC4)c(F)c3)n2)s1` [Example 29, 2,6-Difluoro-N-{2-fluoro-3-[5-[2-({3-fluoro-4-[4-(2-fluoroethyl)-1-piperazinyl]phenyl}amino)-4-pyrimidinyl]-2-(1-methylethyl)-1,3-thiazol-4-yl]phenyl}benzenesulfonamide], the IC50 with Colo205 tumor cells is under 100 nM; in the test on SK-MEL-3 tumor cells, under 100 nM; in the test on SK-MEL-28 tumor cells, under 100 nM; against ErbB2, 100 to 1000 nM.
Consider `CC(C)c1nc(-c2cccc(NS(=O)(=O)c3ccco3)c2)c(-c2ccnc(Nc3ccc(N4CCOCC4)nc3)n2)s1` [Example 53], for which the IC50 with Colo205 tumor cells was under 100 nM; with SK-MEL-3 tumor cells, under 100 nM; in the test with SK-MEL-28 tumor cells it was under 100 nM; against ErbB2, over 1000 nM.
Consider `CC(C)c1nc(-c2ccc(F)c(NS(=O)(=O)c3c(F)cccc3F)c2)c(-c2ccnc(Nc3cccc(CCS(N)(=O)=O)c3)n2)s1` [Example 113], for which the IC50 was 100 to 1000 nM with Colo205 tumor cells, 100 to 1000 nM with SK-MEL-3 tumor cells, 100 to 1000 nM in the test with SK-MEL-28 tumor cells and under 100 nM against ErbB2.
With `CCNc1nc(-c2ccc(F)c(NS(=O)(=O)c3c(F)cccc3F)c2)c(-c2ccnc(Nc3ccc(N4CCOCC4)nc3)n2)s1` [Example 166], the IC50 with Colo205 tumor cells was 100 to 1000 nM; with SK-MEL-3 tumor cells, 100 to 1000 nM; with SK-MEL-28 tumor cells, under 100 nM; against ErbB2, under 100 nM.
Take `COc1ccc(Nc2nccc(-c3sc(C(C)C)nc3-c3cccc(NS(=O)(=O)c4c(F)cccc4F)c3)n2)cc1N(C)C` [Example 18, N-{3-[5-(2-{[3-(Dimethylamino)-4-(methyloxy)phenyl]amino}-4-pyrimidinyl)-2-(1-methylethyl)-1,3-thiazol-4-yl]phenyl}-2,6-difluorobenzenesulfonamide trifluoroacetate]: the half-inhibitory concentration (IC50) in the test on Colo205 tumor cells is under 100 nM; in the test with SK-MEL-3 tumor cells it was under 100 nM; in the test with SK-MEL-28 tumor cells, under 100 nM; against ErbB2, 100 to 1000 nM.
For the compound `CCOc1ccc(Nc2nccc(-c3sc(N4CCCC4)nc3-c3cccc(NS(=O)(=O)c4c(F)cccc4F)c3)n2)cc1N1CCN(CCS(C)(=O)=O)CC1` [Example 109], the IC50 in the test with Colo205 tumor cells, in the test on SK-MEL-3 tumor cells, with SK-MEL-28 tumor cells and at ErbB2 was under 100 nM each time.
With `CC(C)c1nc(-c2cncc(NS(=O)(=O)c3c(F)cccc3F)c2)c(-c2ccnc(Nc3ccc(N4CCOCC4)nc3)n2)s1` [Example 47], the IC50 in the test on Colo205 tumor cells, in the test on SK-MEL-3 tumor cells and in the test on SK-MEL-28 tumor cells was under 100 nM each time.
Regarding `CS(=O)(=O)CCN1CCN(c2ccc(Nc3nccc(-c4oc(N5CCCC5)nc4-c4ccc(F)c(NS(=O)(=O)c5c(F)cccc5F)c4)n3)cc2F)CC1` [Example 119], the IC50 in the test on Colo205 tumor cells, in the test on SK-MEL-28 tumor cells and against ErbB2 was 100 to 1000 nM each time.
